Measurements as given in patent publication US10857105B2, “Compounds and compositions for intracellular delivery of therapeutic agents” (ModernaTX, Inc., priority 2017, dated 2020).
Entries after “also recorded” stand apart in the source; their conditions may differ.

Columns and labels:
[1] = Alanine aminotransferase (ALT) and aspartate aminotransferase (AST) in rat after intravenous administration; type: in vivo
Method: Table 19A summarizes the hEPO expression, IP-10 induction, liver and spleen levels, and alanine aminotransferase (ALT) and aspartate aminotransferase (AST) measured upon intravenous administration of formulations including Compounds 48, 49, and 50 to rat at 0.2 and 2 mpk and hEPO mRNA. hEPO concentrations were measured 6 hours after administration, while cytokine induction and liver and spleen levels were measured 48 hours after administration. hEPO and IP-10 concentrations are presented in pg/ml, while liver levels are provided in ng/g. ALT and AST levels are presented in international units.

[2] = LNP formulation characterization (particle size, PDI, RNA encapsulation, endotoxin); type: physicochemical; conditions: ± SD within one assay run
Method: Preparation of LNP formulations: Lipids were dissolved in ethanol at molar ratios of 50:10:38.5:1.5 (ionizable lipid: DSPC: cholesterol:PEG-lipid). The lipid mixture was combined with a 6.25 mM sodium acetate buffer (pH 5) containing mRNA at a ratio of 3:1 (aqueous:ethanol) using a microfluidic mixer. Formulations were dialyzed against phosphate buffered saline (pH 7.4) in dialysis cassettes for at least 18 hours. Formulations were concentrated via centrifugal filtration, passed through a 0.22-μm filter and stored at 4° C. until use. […] The apparent pKa of the LNP formulation was determined via a TNS assay.

Sprague Dawley rat = conditions: 0.3 mg/kg dose mRNA; cited from earlier work
hEPO mRNA = test: Pretreatment study (methotrexate or dexamethasone) with MC3 formulation in Cynomolgus monkeys; type: in vivo; conditions: once weekly for four weeks, absence of any pretreatment
Source text: In order to combat negative effects, nanoparticle compositions are co-administered with one or more substances (e.g., co-medications or additional therapeutic and/or prophylactics) to subjects. Potentially useful additional therapeutic and/or prophylactics include steroids (e.g., corticosteroids), anti-histamines, H1 receptor blockers, H2 receptor blockers, anti-inflammatory compounds, statins, BTK inhibitors, S1P1 agonists, glucocorticoid receptor modulators (GRMs), and estradiols. Non-human primates are pretreated with one or more additional therapeutic agents selected from dexamethasone and acetaminophen. The additional therapeutic agent is administered either 24 hours, 1 hour, or both 24 hours and 1 hour before administration of a nanoparticle composition. Cytokine profiles, inflammation, and other parameters are measured and compared to evaluate the effectiveness of pretreatment
The effects of pretreatment to non-human primates were evaluated using a standard MC3 formulation including an mRNA encoding hEPO. Male monkeys were administered the nanoparticle composition once weekly for four weeks at a dose rate of 5 ml/kg/h and were pretreated with either methotrexate or dexamethasone.
As shown, in the absence of any pretreatment, maximal expression levels decreased nearly 70% over the course of the study.

cynomolgus monkey = test: One-month toxicological evaluation with weekly dosing in cynomolgus monkey; type: in vivo
Method: (§1) NHP studies: Nonhuman primate studies were conducted using naïve cynomolgus monkeys (cynos), 2-4 years old, weighing 2-6 kg. No treatment randomization or blinding methods were used for any of the animal studies. Sample sizes were determined by the resource equation method. For injection, mRNA-LNPs in phosphate buffered saline (PBS) were administered by 60-minute intravenous infusion using a temporary indwelling catheter inserted in a peripheral vein.
Serum ALT and AST levels: Samples were analyzed using a Modular Analytics analyzer.
Serum C5b9 levels: C5b9 sample analysis was performed using an ELISA method. The kit used was Human C5b-9 ELISA Set and Reagent Set B from BD Bioscience. Study samples were analyzed in singlicate diluted 1/100.
bDNA for measurement of mRNA levels: mRNA sample analysis (bDNA method) was performed using the QuantiGene® 2.0 Reagent System kit from Affymetrix. Study samples were lysed prior to analysis using the QuantiGene Sample Processing Kit (Blood samples). Study samples were analyzed in duplicate diluted between 1/100 and 1/1250000.
Next, tolerability and safety of the compound 18-based LNPs in vivo was tested. A full toxicological evaluation of compound 18-based LNPs in both Sprague Dawley rat and cynomolgus monkey was performed using a standard one-month study with weekly dosing at three dose levels in each species. Rats were dosed at 0.05, 0.5, and 2 mg/kg and a non-human primates was dosed at 0.1, 0.3, and 1 mg/kg. LNP-related toxicities associated with MC3-based LNP systems are generally associated with immunological (cytokine and complement activation) and hepatic injury. […] FIGS. 32 and 33 highlight the day 30 levels of alanine transferase (ALT, FIG. 32A) and aspartate aminotransferase (AST, FIG. 32B), two indicators of liver damage.

ApoE knockout mice = test: Expression study in ApoE knockout mice; type: in vivo; conditions: compound 18 based LNPs
mice = test: hEPO expression on repeat intravenous dosing of hEPO mRNA LNPs in mice; type: in vivo; conditions: 0.5 mg/kg hEPO mRNA intravenously to mice
Method: Blood collection and analysis for hEPO. Blood was collected from mice or rats via the tail vein and hEPO concentrations were determined using a hEPO ELISA assay.
Repeat dosing of mRNA in an MC3-based LNP for a therapeutic indication would be expected to lead to accumulation of MC3 in tissues, based on the measured half-life. Therefore it was investigated whether the favorable single dose pharmacokinetics of compound 18 were maintained with weekly dosing. Clearance of MC3 and compound 18 from multiple mouse tissues was measured after dosing 0.05 mg/kg mRNA on day 1, 8 and 15 (FIG. 30A). Following dosing with MC3 LNPs, lipid was detected in liver, spleen, plasma, kidney, heart and lung; with liver and spleen containing the largest concentrations (FIG. 30A, for full panel of tissues see FIG. 35A). […] Compound 18 was also detected in plasma, lung, and kidney, but not in heart (FIG. 35A).

[3] = Protein expression with nanoparticle composition containing Compound 18 versus MC3 counterpart, 0.1 and 0.3 mpk; type: in vivo; conditions: dose response between 0.1 and 0.3 mpk
cynomolgus monkeys = test: Repeat dose hEPO expression in cynomolgus monkeys, once weekly for 5 weeks; type: in vivo, cynomolgus monkey; conditions: 0.2 mg/kg hEPO mRNA, 60-minute intravenous infusion, n=4
Method: as §1
hEPO ELISA for NHP samples: Human Epo levels were measured using a human erythropoietin immunoassay. Cytokines levels were measured using a non-human primate cytokine kit.
The level of expression provided by LNPs of the disclosure in a repeat dose experiment in primates was evaluated. A 0.2 mg/kg dose of hEPO mRNA in a compound 18-based LNP was delivered via a 60-minute intravenous infusion to cynomolgus monkeys (n=4) once weekly for 5 weeks.

SMILES	ALT ([1]; intravenous 0.2 mpk) [international units]	AST ([1]; intravenous 0.2 mpk) [international units]	ALT ([1]; intravenous 2 mpk) [international units]	AST ([1]; intravenous 2 mpk) [international units]	% Encapsulation [2] [%]	PDI (polydispersity index) [2]	ALT, AST and pathology of MC3-based mRNA LNP (Sprague Dawley rat)	Decrease of maximal expression levels over the course of the study (hEPO mRNA) [%]	monocyte chemo-attractive protein (MCP-1) (cynomolgus monkey)	ALT and AST levels, day 30 (cynomolgus monkey; 1 mg/kg dose)	circulating mRNA levels after each dose (cynomolgus monkey; bDNA)	toxicological findings (cynomolgus monkey; weekly dosing one month, 0.1, 0.3 and 1 mg/kg)	expression in ApoE knockout mice (ApoE knockout mice)	hEPO expression on repeat dosing (mice)	0.3 mpk AUC relative to 0.1 mpk dose AUC [3]	hEPO exposure over repeat dosing (cynomolgus monkeys)
CCCCCC=CCC=CCCCCCCCCC(CCCCCCCCC=CCC=CCCCCC)OC(=O)CCCN(C)C (stereo not shown) [MC3, heptatriaconta-6,9,28,31-tetraen-19-yl 4-(dimethylamino)butanoate, reference compound]	63.6	134.8	79.6	139.0	97.3 ± 1.9	0.11 ± 0.04	ALT and AST were elevated and pathology showed evidence of necrosis	~70								
CCCCCCCCCOC(=O)CCCCCCCN(CCO)CCCCCCCC(=O)OC(CCCCCCCC)CCCCCCCC [Compound 18, Heptadecan-9-yl 8-((2-hydroxyethyl)(8-(nonyloxy)-8-oxooctyl)amino)octanoate]									slight variation above baseline	at the same level as the control	consistent exposures	minimal findings at all dose levels	almost complete loss in expression	Consistent levels of expression	about three times	Efficient expression; also recorded: Consistent exposure
